system: not given; assay: not given; settings: not given

| melting point | SMILES |
| --- | --- |
| 160 to 162 °C | Cc1cccc(OC(=O)c2cc3cc(CCl)ccc3oc2=O)n1 [Ic′″10, 6-methyl-2-pyridyl 6-chloromethyl-2-oxo-2H-1-benzopyran-3-carboxylate] |
| 152 to 154 °C | Cc1ccnc(OC(=O)c2cc3cc(CCl)ccc3oc2=O)c1 [Ic′″11, 4-methyl-2-pyridyl 6-chloromethyl-2-oxo-2H-1-benzopyran-3-carboxylate] |
| 172 to 173 °C | O=C(Oc1cccc(Cl)n1)c1cc2cc(CCl)ccc2oc1=O [Ic′″12, 6-chloro-2-pyridyl 6-chloromethyl-2-oxo-2H-1-benzopyran-3-carboxylate] |

biological target: T1, bovine trypsin (Bos taurus, UniProt P00760); assay: Inactivation kinetics of bovine trypsin (chromogenic substrate N-benzoyl-Arg-pNA); type: biochemical; settings: TABLE 1, 2-pyridyl esters; 25° C., pH 7.5; N.I. = non-inactivator
T1 sequence (P00760 24-246): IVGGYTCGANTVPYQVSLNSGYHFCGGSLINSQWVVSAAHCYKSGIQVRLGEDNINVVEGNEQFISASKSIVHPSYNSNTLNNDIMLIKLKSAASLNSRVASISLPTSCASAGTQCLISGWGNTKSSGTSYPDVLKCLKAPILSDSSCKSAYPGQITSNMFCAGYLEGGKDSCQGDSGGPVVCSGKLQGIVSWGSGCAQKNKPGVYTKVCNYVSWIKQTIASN
Method: (§1) The inactivating or inhibitory properties of the coumarin derivatives were tested with respect to a certain number of enzymes: human leukocyte elastase, bovine α-chymotrypsin, human thrombin and bovine trypsin. The kinetic measurements were taken at 25° C. in the following buffers: 0.1 M Hepes, 0.5 M NaCl, 0.01% Tween 80, pH 8.0 (human leukocyte elastase); 0.025 M NaH2PO4, 0.05 M KCl, pH 7.5 (α-chymotrypsin); 0.01 M Tris, 0.01 M Hepes, 0.1 M NaCl, 0.1% PEG-6000, pH 7.5 (human thrombin); 0.1 M Tris, 0.01 M CaCl2, pH 7.5 (bovine trypsin). The chromogenic substrates used to determine the activity of the enzymes are: MeOSuc-Ala2-Pro-Val-pNA (human leukocyte elastase); Suc-Ala2-Pro-Phe-pNA (α-chymotrypsin); H-D-Phe-Pip-Arg-pNA (human thrombin); N-benzoyl-Arg-pNA (bovine trypsin) (pNA: para-nitroaniline).
(§2) The interaction of a suicide substrate with a serine protease corresponds to the minimum reaction scheme described in equation 1 in which E represents the enzyme, I represents the inhibitor, E-I represents the acyl-enzyme and E-I′ represents the inactivated enzyme [Silverman R. B., 1988, “Mechanism-based enzyme inactivation: chemistry and enzymology”, volume 1 CRC Press, Boca Raton, Fla.]: [drawing 76]
(§3) When k4 is small compared to k3, equation 1 can be simplified (equation 2, [Daniels et al., 1983, J. Biol. Chem., 258: 15046-15053]): [drawing 77]
(§4) Considering the first instants of the reaction, the system reduces to a simplified equation of the form of equation 2.
(§5) The kinetic constants characterizing the inactivation of the enzymes with the coumarin derivatives were determined using either the conventional sampling method (or batchwise method) or a method placing the inhibitor and the substrate in competition (or continuous method); these methods are described by Pochet et al. [Pochet et al., 1996, J. Med. Chem., 39: 2579-2585].
(§6) The inactivation of serine proteaaes with the coumarin derivatives is thus characterized by the following constants (see Eq. 2):
(§7) KI: apparent dissociation constant of an enzyme-inhibitor complex located upstream of ki
(§8) ki: first-order rate constant for inactivation at infinite inhibitor concentration
(§9) ki/KI: index of the overall inactivating efficacy of the inhibitor.

| Ki/KI or kobs/[I], Trypsin | SMILES |
| --- | --- |
| N.I.^a — — N.I. N.I. | Cc1cccc(OC(=O)c2cc3cc(CCl)ccc3oc2=O)n1 [Ic′″10, 6-methyl-2-pyridyl 6-chloromethyl-2-oxo-2H-1-benzopyran-3-carboxylate] |
| N.I.^a — — N.I. N.I. | Cc1ccnc(OC(=O)c2cc3cc(CCl)ccc3oc2=O)c1 [Ic′″11, 4-methyl-2-pyridyl 6-chloromethyl-2-oxo-2H-1-benzopyran-3-carboxylate] |

same assay, conditions: TABLE 1; 25° C., pH 7.5; N.I. = non-inactivator

| Ki/KI or kobs/[I], Trypsin | SMILES |
| --- | --- |
| N.I.^a — — N.I. N.I. | Cc1cccc(OC(=O)c2cc3cc(CCl)ccc3oc2=O)n1 [Ic′″10, 6-methyl-2-pyridyl 6-chloromethyl-2-oxo-2H-1-benzopyran-3-carboxylate] |
| N.I.^a — — N.I. N.I. | Cc1ccnc(OC(=O)c2cc3cc(CCl)ccc3oc2=O)c1 [Ic′″11, 4-methyl-2-pyridyl 6-chloromethyl-2-oxo-2H-1-benzopyran-3-carboxylate] |

biological target: T2, bovine α-chymotrypsin (Bos taurus, UniProt P00766); assay: Inactivation kinetics of bovine α-chymotrypsin (chromogenic substrate Suc-Ala2-Pro-Phe-pNA); type: biochemical; settings: TABLE 1, 2-pyridyl esters; 25° C., pH 7.5; N.I. = non-inactivator; read-out: Ki/KI or kobs/[I], α-CT
T2 construct: bovine α-chymotrypsin
Method: as §1, §2, §3, §4, §5, §6, §7, §8, §9

| kinact/KI | SMILES |
| --- | --- |
| 3300 M⁻¹ s⁻¹ | Cc1cccc(OC(=O)c2cc3cc(CCl)ccc3oc2=O)n1 [Ic′″10, 6-methyl-2-pyridyl 6-chloromethyl-2-oxo-2H-1-benzopyran-3-carboxylate] |
| 5950 M⁻¹ s⁻¹ | Cc1ccnc(OC(=O)c2cc3cc(CCl)ccc3oc2=O)c1 [Ic′″11, 4-methyl-2-pyridyl 6-chloromethyl-2-oxo-2H-1-benzopyran-3-carboxylate] |
| 107000 M⁻¹ s⁻¹ | O=C(Oc1cccc(Cl)n1)c1cc2cc(CCl)ccc2oc1=O [Ic′″12, 6-chloro-2-pyridyl 6-chloromethyl-2-oxo-2H-1-benzopyran-3-carboxylate] |

biological target: T3, human leukocyte elastase (Homo sapiens, UniProt P08246); assay: Inactivation kinetics of human leukocyte elastase (chromogenic substrate MeOSuc-Ala2-Pro-Val-pNA); type: biochemical; settings: TABLE 1, 2-pyridyl esters; 25° C., pH 8.0; inactivation phase of transient inactivation; read-out: Ki/KI or kobs/[I], LHE
T3 sequence (P08246 30-247 limits assumed): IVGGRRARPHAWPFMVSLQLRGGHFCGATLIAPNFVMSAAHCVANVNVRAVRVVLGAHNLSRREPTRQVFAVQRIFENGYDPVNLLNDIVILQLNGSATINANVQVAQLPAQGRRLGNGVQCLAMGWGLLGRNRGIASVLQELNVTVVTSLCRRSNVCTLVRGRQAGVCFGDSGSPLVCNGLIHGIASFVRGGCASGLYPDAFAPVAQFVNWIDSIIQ
Method: as §1, §2, §3, §4, §5, §6, §7, §8, §9

| kinact/KI | SMILES |
| --- | --- |
| 200 M⁻¹ s⁻¹ | Cc1cccc(OC(=O)c2cc3cc(CCl)ccc3oc2=O)n1 [Ic′″10, 6-methyl-2-pyridyl 6-chloromethyl-2-oxo-2H-1-benzopyran-3-carboxylate] |
| 300 M⁻¹ s⁻¹ | Cc1ccnc(OC(=O)c2cc3cc(CCl)ccc3oc2=O)c1 [Ic′″11, 4-methyl-2-pyridyl 6-chloromethyl-2-oxo-2H-1-benzopyran-3-carboxylate] |
| 26000 M⁻¹ s⁻¹ | O=C(Oc1cccc(Cl)n1)c1cc2cc(CCl)ccc2oc1=O [Ic′″12, 6-chloro-2-pyridyl 6-chloromethyl-2-oxo-2H-1-benzopyran-3-carboxylate] |

same assay, conditions: TABLE 1; 25° C., pH 8.0; inactivation phase

| Ki/KI or kobs/[I], LHE | SMILES |
| --- | --- |
| 200 M⁻¹ s⁻¹ | Cc1cccc(OC(=O)c2cc3cc(CCl)ccc3oc2=O)n1 [Ic′″10, 6-methyl-2-pyridyl 6-chloromethyl-2-oxo-2H-1-benzopyran-3-carboxylate] |
| 300 M⁻¹ s⁻¹ | Cc1ccnc(OC(=O)c2cc3cc(CCl)ccc3oc2=O)c1 [Ic′″11, 4-methyl-2-pyridyl 6-chloromethyl-2-oxo-2H-1-benzopyran-3-carboxylate] |
| 26000 M⁻¹ s⁻¹ | O=C(Oc1cccc(Cl)n1)c1cc2cc(CCl)ccc2oc1=O [Ic′″12, 6-chloro-2-pyridyl 6-chloromethyl-2-oxo-2H-1-benzopyran-3-carboxylate] |

biological target: T4, human thrombin (Homo sapiens, UniProt P00734); assay: Inactivation kinetics of human thrombin (chromogenic substrate H-D-Phe-Pip-Arg-pNA); type: biochemical; settings: TABLE 1, 2-pyridyl esters; 25° C., pH 7.5; inactivation phase; N.I. = non-inactivator
T4 construct: human thrombin
Method: as §1, §2, §3, §4, §5, §6, §7, §8, §9

| Ki/KI or kobs/[I], Thrombin | SMILES |
| --- | --- |
| N.I. | Cc1cccc(OC(=O)c2cc3cc(CCl)ccc3oc2=O)n1 [Ic′″10, 6-methyl-2-pyridyl 6-chloromethyl-2-oxo-2H-1-benzopyran-3-carboxylate] |

same assay, conditions: TABLE 1, 2-pyridyl esters; 25° C., pH 7.5; inactivation phase; N.I. = non-inactivator; read-out: Ki/KI or kobs/[I], Thrombin

| kinact/KI | SMILES |
| --- | --- |
| 3900 M⁻¹ s⁻¹ | Cc1ccnc(OC(=O)c2cc3cc(CCl)ccc3oc2=O)c1 [Ic′″11, 4-methyl-2-pyridyl 6-chloromethyl-2-oxo-2H-1-benzopyran-3-carboxylate] |
| 7200 M⁻¹ s⁻¹ | O=C(Oc1cccc(Cl)n1)c1cc2cc(CCl)ccc2oc1=O [Ic′″12, 6-chloro-2-pyridyl 6-chloromethyl-2-oxo-2H-1-benzopyran-3-carboxylate] |

same assay, conditions: TABLE 1; 25° C., pH 7.5; inactivation phase; N.I. = non-inactivator

| Ki/KI or kobs/[I], Thrombin | SMILES |
| --- | --- |
| N.I. | Cc1cccc(OC(=O)c2cc3cc(CCl)ccc3oc2=O)n1 [Ic′″10, 6-methyl-2-pyridyl 6-chloromethyl-2-oxo-2H-1-benzopyran-3-carboxylate] |
| 3900 M⁻¹ s⁻¹ | Cc1ccnc(OC(=O)c2cc3cc(CCl)ccc3oc2=O)c1 [Ic′″11, 4-methyl-2-pyridyl 6-chloromethyl-2-oxo-2H-1-benzopyran-3-carboxylate] |
| 7200 M⁻¹ s⁻¹ | O=C(Oc1cccc(Cl)n1)c1cc2cc(CCl)ccc2oc1=O [Ic′″12, 6-chloro-2-pyridyl 6-chloromethyl-2-oxo-2H-1-benzopyran-3-carboxylate] |
